Legend:
[1] = tested on: Green Peach Aphid (Myzus persicae) (GPA) (MYZUPE); test: Green peach aphid (GPA) foliar spray bioassay on cabbage seedlings; assay type: in vivo; conditions: 72 h, 200 ppm foliar spray on cabbage seedlings, graded after three days, Abbott-corrected % control, disclosed compounds (TABLE 2), read-out: GPA % Control (or Mortality) rating
Experimental: Bioassay for GPA was prepared as follows: Cabbage seedlings grown in 3-inch pots, with 2-3 small (3-5 cm) true leaves, were used as test substrate. The seedlings were infested with 20-50 GPA (adult and nymph stages) one day prior to chemical application. Four pots with individual seedlings were used for each treatment. The tested compounds (2 mg) were dissolved in 2 mL of acetone/methanol (1:1) solvent to form stock solutions of 1000 ppm tested compound. The stock solutions were diluted five times with an aqueous solution containing 0.025% TWEEN® 20 surfactant, which is polyoxyethylene (20) sorbitan monolaurate, to obtain the solution at 200 ppm tested compound. A hand-held aspirator-type sprayer was used for spraying the solution to both sides of cabbage leaves until runoff. The control plants (solvent check) were sprayed with the diluent only containing 20% by volume of acetone/methanol (1:1) solvent. Treated plants were held in a holding room for three days at approximately 25° C. and ambient relative humidity (RH) prior to grading. Evaluation was conducted by counting the number of live aphids per plant under a microscope. Percent control was measured by using Abbott's correction formula (W. S. Abbott, “A Method of Computing the Effectiveness of an Insecticide,” J. Econ. Entomol. 18 (1925), pp. 265-267) as follows. Corrected % Control=100*(X−Y)/X
X=No. of live aphids on solvent check plants and
Y=No. of live aphids on treated plants
(§1) The comparative compounds were tested for insecticidal activities against GPA and WF pests using the same test protocols described above for the disclosed compounds.

[2] = tested on: Sweetpotato Whitefly-crawler (Bemisia tabaci) (WF) (BEMITA); test: Sweetpotato whitefly-crawler (WF) foliar spray assay on cotton plants; assay type: in vivo; conditions: 216 h, 200 ppm foliar spray on cotton plants, graded after 9 days, Abbott-corrected % control, disclosed compounds (TABLE 2), read-out: WF % Control (or Mortality) rating
Experimental: Foliar spray assay for WF was prepared as follows: Cotton plants (Gossypium hirsutum) grown in 3-inch pots, with 1 small (4-5 cm) true leaf, were used as test substrate. The plants were infested with 200-400 whitefly eggs 4-5 days prior to chemical application. Four pots with individual plants were used for each treatment. Tested compounds (2 mg) were dissolved in 1 mL of acetone solvent, forming stock solutions of 2000 ppm tested compound.
The stock solutions were diluted ten times with 0.025% TWEEN® 20 surfactant in H2O (diluents) to obtain the solution at 200 ppm tested compound. A hand-held aspirator-type sprayer was used for spraying the solution to both sides of cotton leaves until runoff. The control plants (solvent check) were sprayed with the diluent only containing 10% by volume of acetone solvent. Treated plants were held in a holding room for 9 days at approximately 25° C. and ambient relative humidity (RH) prior to grading. Evaluation was conducted by counting the number of live 3-4 nymph stage per plant under a microscope. Percent control was measured by using Abbott's correction formula (W. S. Abbott, “A Method of Computing the Effectiveness of an Insecticide,” J. Econ. Entomol. 18 (1925), pp. 265-267) as follows. Corrected % Control=100*(X−Y)/X
X=No. of live nymphs on solvent check plants and
Y=No. of live nymphs on treated plants.
as §1

SMILES	mortality at 200 ppm [1]	mortality at 200 ppm [2]
CC(C)N1CCc2nn(-c3cccnc3)cc2C1=O [Compound F6, 5-Isopropyl-2-(3-pyridyl)-6,7-dihydropyrazolo[4,3-c]pyridin-4-one]	80 to 100%	80 to 100%
O=C1c2cn(-c3cccnc3)nc2CCN1c1cc(C(F)(F)F)ccn1 [Compound F7, 2-(3-Pyridyl)-5-[4-(trifluoromethyl)-2-pyridyl]-6,7-dihydropyrazolo[4,3-c]pyridin-4-one]	80 to 100%	80 to 100%
CCOC(=O)CN1CCc2nn(-c3cccnc3)cc2C1=O [Compound F8, ethyl 2-(4-oxo-2-(pyridin-3-yl)-6,7-dihydro-2H-pyrazolo[4,3-c]pyridin-5(4H)-yl)acetate]	80 to 100%	80 to 100%
O=C1c2cn(-c3cccnc3)nc2CCN1c1ncccc1C(F)(F)F [Compound F10, 2-(3-Pyridyl)-5-[3-(trifluoromethyl)-2-pyridyl]-6,7-dihydropyrazolo[4,3-c]pyridin-4-one]	0 to 80%	0 to 80%
CSCCC(=O)N1CCc2nn(-c3cccnc3)cc2C1=O [Compound F12, 5-(3-(methylthio)propanoyl)-2-(pyridin-3-yl)-6,7-dihydro-2H-pyrazolo[4,3-c]pyridin-4(5H)-one]	80 to 100%	0 to 80%
O=C1c2cn(-c3cccnc3)nc2CCN1c1ccc(C(F)(F)F)cc1 [Compound F13, 2-(3-Pyridyl)-5-[4-(trifluoromethyl)phenyl]-6,7-dihydropyrazolo[4,3-c]pyridin-4-one]	80 to 100%	0 to 80%
O=C1c2cn(-c3cccnc3)nc2CCN1c1ccc(OC(F)(F)F)cc1 [Compound F14, 2-(3-Pyridyl)-5-[4-(trifluoromethoxy)phenyl]-6,7-dihydropyrazolo[4,3-c]pyridin-4-one]	80 to 100%	0 to 80%
COc1ccccc1CN1CCc2nn(-c3cccnc3)cc2C1=O [Compound F15, 5-[(2-Methoxyphenyl)methyl]-2-(3-pyridyl)-6,7-dihydropyrazolo[4,3-c]pyridin-4-one]	0 to 80%	80 to 100%
O=C1c2cn(-c3cccnc3)nc2CCN1Cc1ccccc1F [Compound F17, 5-(2-fluorobenzyl)-2-(pyridin-3-yl)-6,7-dihydro-2H-pyrazolo[4,3-c]pyridin-4(5H)-one]	0 to 80%	80 to 100%
COc1cccc(N2CCc3nn(-c4cccnc4)cc3C2=O)n1 [Compound F18, 5-(6-Methoxy-2-pyridyl)-2-(3-pyridyl)-6,7-dihydropyrazolo[4,3-c]pyridin-4-one]	0 to 80%	0 to 80%
O=C1c2cn(-c3cccnc3)nc2CCN1CCSCCC(F)(F)F [Compound F19, 2-(pyridin-3-yl)-5-(2-((3,3,3-trifluoropropyl)thio)ethyl)-6,7-dihydro-2H-pyrazolo[4,3-c]pyridin-4(5H)-one]	80 to 100%	80 to 100%
CSCN1CCc2nn(-c3cccnc3)cc2C1=O [Compound F20, 5-(Methylsulfanylmethyl)-2-(3-pyridyl)-6,7-dihydropyrazolo[4,3-c]pyridin-4-one]	80 to 100%	80 to 100%
O=C1c2cn(-c3cccnc3)nc2CCN1c1cncc(C(F)(F)F)c1 [Compound F21, 2-(3-Pyridyl)-5-[5-(trifluoromethyl)-3-pyridyl]-6,7-dihydropyrazolo[4,3-c]pyridin-4-one]	80 to 100%	80 to 100%
O=C1c2cn(-c3cccnc3)nc2CCN1c1cccc(OC(F)(F)F)c1 [Compound F22, 2-(3-Pyridyl)-5-[3-(trifluoromethoxy)phenyl]-6,7-dihydropyrazolo[4,3-c]pyridin-4-one]	80 to 100%	80 to 100%
COc1ccc(CN2CCc3nn(-c4cccnc4)cc3C2=O)cc1 [Compound F23, 5-[(4-Methoxyphenyl)methyl]-2-(3-pyridyl)-6,7-dihydropyrazolo[4,3-c]pyridin-4-one]	80 to 100%	80 to 100%
CN1CCc2nn(-c3cccnc3)cc2C1=O [Compound F28, 5-methyl-2-(pyridin-3-yl)-6,7-dihydro-2H-pyrazolo[4,3-c]pyridin-4(5H)-one]	80 to 100%	0 to 80%
O=C1c2cn(-c3cccnc3)nc2CCN1Cc1cccc(C(F)(F)F)c1 [Compound F29, 2-(3-Pyridyl)-5-[[3-(trifluoromethyl)phenyl]methyl]-6,7-dihydropyrazolo[4,3-c]pyridin-4-one]	80 to 100%	80 to 100%
C=CCN1CCc2nn(-c3cccnc3)cc2C1=O [Compound F31, 5-allyl-2-(pyridin-3-yl)-6,7-dihydro-2H-pyrazolo[4,3-c]pyridin-4(5H)-one]	80 to 100%	0 to 80%
O=C1c2cn(-c3cccnc3)nc2CCN1Cc1ccccc1C(F)(F)F [Compound F32, 2-(3-Pyridyl)-5-[[2-(trifluoromethyl)phenyl]methyl]-6,7-dihydropyrazolo[4,3-c]pyridin-4-one]	0 to 80%	80 to 100%
O=C1c2cn(-c3cccnc3)nc2CCN1c1ccc(C(F)(F)F)nc1 [Compound F33, 2-(3-Pyridyl)-5-[6-(trifluoromethyl)-3-pyridyl]-6,7-dihydropyrazolo[4,3-c]pyridin-4-one]	80 to 100%	0 to 80%
O=C1c2cn(-c3cccnc3)nc2CCN1c1ncccn1 [Compound F34, 2-(3-Pyridyl)-5-pyrimidin-2-yl-6,7-dihydropyrazolo[4,3-c]pyridin-4-one]	80 to 100%	80 to 100%
O=C1c2cn(-c3cccnc3)nc2CCN1c1ccc(C(F)(F)F)cn1 [Compound F37, 2-(pyridin-3-yl)-5-(5-(trifluoromethyl)pyrdin-2-yl)-6,7-dihydro-2H-pyrazolo[4,3-c]pyridin-4(5H)-one]	80 to 100%	80 to 100%
O=C1c2cn(-c3cccnc3)nc2CCN1c1cccc(-c2ncccn2)n1 [Compound F38, 2-(3-Pyridyl)-5-(6-pyrimidin-2-yl-2-pyridyl)-6,7-dihydropyrazolo[4,3-c]pyridin-4-one]	0 to 80%	< 0%
N#CCN1CCc2nn(-c3cccnc3)cc2C1=O [Compound F39, 2-[4-Oxo-2-(3-pyridyl)-6,7-dihydropyrazolo[4,3-c]pyridin-5-yl]acetonitrile]	80 to 100%	0 to 80%
CSCCN1CCc2nn(-c3cccnc3)cc2C1=O [Compound F40, 5-(2-(methylthio)ethyl)-2-(pyridin-3-yl)-6,7-dihydro-2H-pyrazolo[4,3-c]pyridin-4(5H)-one]	80 to 100%	80 to 100%
O=C(CN1CCc2nn(-c3cccnc3)cc2C1=O)N1CCN(C2CCC2)CC1 [Compound F42, 5-[2-(4-Cyclobutylpiperazin-1-yl)-2-oxo-ethyl]-2-(3-pyridyl)-6,7-dihydropyrazolo[4,3-c]pyridin-4-one]	80 to 100%	80 to 100%
O=C1c2cn(-c3cccnc3)nc2CCN1c1ccccn1 [Compound F43, 5-(pyridin-2-yl)-2-(pyridin-3-yl)-6,7-dihydro-2H-pyrazolo[4,3-c]pyridin-4(5H)-one]	80 to 100%	0 to 80%
